Measured values taken from patent US7495003B2, “8-(3-amino-piperidin-1-yl)-7-(but-2-ynyl)-xanthines, the preparation thereof and their use as pharmaceutical compositions” (Boehringer Ingelheim International GmbH, priority 2004, dated 2009).

Key:
DPP-IV = target: T1, DPP-IV (Homo sapiens, UniProt P27487); assay: DPP-IV assay with extract of Caco-2 cells as DPP IV source (AFC substrate, fluorescence); type: biochemical; conditions: extract of human colon carcinoma cell line Caco-2; substrate 100 μM; 60 minutes at ambient temperature; read-out: DPP IV inhibition IC50
T1 construct: an extract of the human colon carcinoma cell line Caco-2 is used as the DPP IV source; endogenous in cells; host or cells: Caco-2 (human colon carcinoma), differentiated to induce DPP-IV expression; Nonidet-P40 solubilised extract
Procedure: The differentiation of the cells in order to induce the DPP-IV expression was carried out in accordance with the description by Reiher et al. in an article entitled “Increased expression of intestinal cell line Caco-2”, which appeared in Proc. Natl. Acad. Sci. Vol. 90, pp. 5757-5761 (1993). The cell extract was obtained from cells solubilised in a buffer (10 mM Tris HCl, 0.15 M NaCl, 0.04 t.i.u. aprotinin, 0.5% Nonidet-P40, pH 8.0) by centrifugation at 35,000 g for 30 minutes at 4° C. (to remove cell debris).
The DPP-IV assay was carried out as follows:
50 μl of substrate solution (AFC; AFC is amido-4-trifluoromethylcoumarin), final concentration 100 μM, were placed in black microtitre plates. 20 μl of assay buffer (final concentrations 50 mM Tris HCl pH 7.8, 50 mM NaCl, 1% DMSO) was pipetted in. The reaction was started by the addition of 30 μl of solubilised Caco-2 protein (final concentration 0.14 μg of protein per well). The test substances under investigation were typically added prediluted to 20 μl, while the volume of assay buffer was then reduced accordingly. […] Then the fluorescence was measured in a Victor 1420 Multilabel Counter, with the excitation wavelength at 405 nm and the emission wavelength at 535 nm. […] The potency of the test substances in question, expressed as IC50 values, were calculated from dosage/activity curves consisting of 11 measured points in each case.

rats = assay: Tolerability in rats after oral administration; type: in vivo; conditions: oral administration of 10 mg/kg

T1 sequence (P27487 whole entry): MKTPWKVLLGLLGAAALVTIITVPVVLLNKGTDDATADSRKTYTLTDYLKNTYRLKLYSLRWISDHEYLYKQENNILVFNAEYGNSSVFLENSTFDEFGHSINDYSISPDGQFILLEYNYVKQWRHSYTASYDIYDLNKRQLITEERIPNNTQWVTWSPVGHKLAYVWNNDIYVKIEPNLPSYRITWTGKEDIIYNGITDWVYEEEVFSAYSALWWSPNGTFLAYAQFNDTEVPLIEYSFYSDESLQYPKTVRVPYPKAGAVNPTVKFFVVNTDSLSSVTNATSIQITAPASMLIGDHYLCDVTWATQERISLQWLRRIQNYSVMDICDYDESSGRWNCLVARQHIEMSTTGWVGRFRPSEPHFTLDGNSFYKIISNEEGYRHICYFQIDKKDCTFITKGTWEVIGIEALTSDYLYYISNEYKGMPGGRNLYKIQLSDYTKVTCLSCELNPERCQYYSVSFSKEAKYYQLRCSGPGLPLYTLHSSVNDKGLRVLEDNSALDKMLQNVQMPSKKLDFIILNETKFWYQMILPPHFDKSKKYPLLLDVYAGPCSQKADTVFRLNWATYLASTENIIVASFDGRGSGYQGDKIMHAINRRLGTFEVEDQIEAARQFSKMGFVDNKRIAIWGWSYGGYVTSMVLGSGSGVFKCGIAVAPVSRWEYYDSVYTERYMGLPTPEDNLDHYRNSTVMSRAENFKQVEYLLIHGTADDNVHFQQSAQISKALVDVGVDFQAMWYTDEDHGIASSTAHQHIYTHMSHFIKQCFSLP

Row | SMILES | IC50 (DPP-IV) [nM] | toxic side effects (rats)
1 | CC#CCn1c(N2CCC[C@@H](N)C2)nc2c1c(=O)n(Cc1nc(C)c3ccccc3n1)c(=O)n2CC(=O)OCC [1(3), (R)-1-(4-methyl-quinazolin-2-ylmethyl)-3-(ethoxycarbonylmethyl)-7-(but-2-ynyl)-8-(3-amino-piperidin-1-yl)-xanthine] | 3 | –
2 | CC#CCn1c(N2CCC[C@@H](N)C2)nc2c1c(=O)n(Cc1nc(C)c3ccccc3n1)c(=O)n2CC(=O)OC [Example 1(2), (R)-1-(4-methyl-quinazolin-2-ylmethyl)-3-(methoxycarbonylmethyl)-7-(but-2-ynyl)-8-(3-amino-piperidin-1-yl)-xanthine] | 3 | no toxic side effects could be detected
